Source: ChEMBL document CHEMBL3994562 (Medchemcomm, 2016)

What was measured:
[1] = Aqueous solubility of the compound in water after 48 hrs by UV spectrophotometer; assay type: physicochemical
HepG2 [2] = experiment: Antiproliferative activity in human HepG2 cells after 72 hrs by MTT assay; assay type: functional, cell-based; conditions: HepG2, 72 h
HCT-116 [3] = experiment: Antiproliferative activity in human HCT116 cells after 72 hrs by MTT assay; assay type: functional, cell-based; conditions: HCT-116, 72 h
A549 = experiment: Antiproliferative activity in human A549 cells after 72 hrs by MTT assay; assay type: functional, cell-based; conditions: A549, 72 h
MCF7 = experiment: Antiproliferative activity in human MCF7 cells after 72 hrs by MTT assay; assay type: functional, cell-based; conditions: MCF7, 72 h
Bel-7402 [4] = experiment: Antiproliferative activity in human Bel7402 cells after 72 hrs by MTT assay; assay type: functional, cell-based; conditions: Bel-7402, 72 h
Bel-7402 [5] = experiment: Antiproliferative activity in 5-FU resistant human Bel7402 cells after 72 hrs by MTT assay; assay type: functional, cell-based; conditions: Bel-7402, 72 h
HCT-116 [6] = experiment: Potency index, ratio of 5-FU IC50 to compound IC50 for human HCT116 cells; assay type: functional
HepG2 [7] = experiment: Potency index, ratio of 5-FU IC50 to compound IC50 for human HepG2 cells; assay type: functional
HCT-116 [8] = experiment: Induction of apoptosis in human HCT116 cells after 48 hrs by annexin V-FITC/propidium iodide staining-based flow cytometric method; assay type: functional, cell-based
HCT-116 [9] = experiment: Induction of apoptosis in human HCT116 cells at 4 uM after 48 hrs by annexin V-FITC/propidium iodide staining-based flow cytometric method; assay type: functional
HCT-116 [10] = experiment: Cell cycle arrest in human HCT116 cells assessed as accumulation at G2/M phase after 24 hrs by propidium iodide staining-based flow cytometric analysis; assay type: functional
HCT-116 [11] = experiment: Cell cycle arrest in human HCT116 cells assessed as decrease in cell population at G0/G1 phase after 24 hrs by propidium iodide staining-based flow cytometric analysis; assay type: functional
HCT-116 [12] = experiment: Induction of apoptosis in human HCT116 cells assessed as downregulation of CDK1 protein level after 24 hrs by Western blot method; assay type: functional, cell-based
HCT-116 [13] = experiment: Induction of apoptosis in human HCT116 cells assessed as downregulation of cyclin B protein level after 24 hrs by Western blot method; assay type: functional, cell-based

Row | solubility at 48 h [1] [mg/mL] | IC50 (HepG2 [2]) [µM] | IC50 (HCT-116 [3]) [µM] | IC50 (A549) [µM] | IC50 (MCF7) [µM] | IC50 (Bel-7402 [4]) [µM] | IC50 (Bel-7402 [5]) [µM] | SMILES | Ratio IC50 (HCT-116 [6]) | Ratio IC50 (HepG2 [7]) | Activity (HCT-116 [8]) | Activity (HCT-116 [9]) [%] | Activity (HCT-116 [10]) | Activity (HCT-116 [11]) | Activity (HCT-116 [12]) | Activity (HCT-116 [13])
1 | 12.9 | 0.42 | 0.76 | 3.39 | 5.05 | – | – | CN1CCN(CCCCCCOC(=O)c2cc(O)c3c(c2)C(=O)c2cccc(O)c2C3=O)CC1.Cl.Cl | – | – | – | – | – | – | – | –
2 | 12.2 | 2.51 | 0.55 | 5.21 | 0.95 | – | – | Cl.Cl.O=C(OCCCCCN1CCN(CCO)CC1)c1cc(O)c2c(c1)C(=O)c1cccc(O)c1C2=O | – | – | – | – | – | – | – | –
3 | 13.3 | 4.93 | 3.75 | 8.41 | 11.4 | – | – | CN1CCN(CCCOC(=O)c2cc(O)c3c(c2)C(=O)c2cccc(O)c2C3=O)CC1.Cl.Cl | – | – | – | – | – | – | – | –
4 | 15.1 | 0.85 | 0.31 | 5.28 | 7.63 | 2.36 | 4.48 | Cl.Cl.O=C(OCCCCCCN1CCN(CCO)CC1)c1cc(O)c2c(c1)C(=O)c1cccc(O)c1C2=O | 5 - 18 | 5 - 18 | Dose-dependent effect | 56.08 | Dose-dependent effect | Dose-dependent effect | Dose-dependent effect | Dose-dependent effect
5 | 12.4 | 12.2 | 9.05 | 27.3 | 15.2 | – | – | CCN(CC)CCCCCOC(=O)c1cc(O)c2c(c1)C(=O)c1cccc(O)c1C2=O.Cl | – | – | – | – | – | – | – | –
6 | 13.7 | 2.95 | 1.5 | 6.32 | 1.13 | – | – | CN1CCN(CCCCCOC(=O)c2cc(O)c3c(c2)C(=O)c2cccc(O)c2C3=O)CC1.Cl.Cl | – | – | – | – | – | – | – | –
7 | 10.5 | 2.51 | 1.88 | 8.56 | 5.23 | – | – | CCN1CCN(CCCCOC(=O)c2cc(O)c3c(c2)C(=O)c2cccc(O)c2C3=O)CC1.Cl.Cl | – | – | – | – | – | – | – | –
8 | 13.6 | 2.94 | 0.65 | 6.23 | 8.28 | – | – | CCN(CC)CCCOC(=O)c1cc(O)c2c(c1)C(=O)c1cccc(O)c1C2=O.Cl | – | – | – | – | – | – | – | –
9 | 10 | 2.86 | 2.39 | 6.78 | 0.42 | – | – | CCN1CCN(CCCCCOC(=O)c2cc(O)c3c(c2)C(=O)c2cccc(O)c2C3=O)CC1.Cl.Cl | – | – | – | – | – | – | – | –
10 | 12.1 | 1.81 | 4.92 | 24.9 | 27.3 | – | – | Cl.O=C(OCCCN1CCOCC1)c1cc(O)c2c(c1)C(=O)c1cccc(O)c1C2=O | – | – | – | – | – | – | – | –
11 | 14.8 | 3.32 | 2.93 | 2.9 | 6.63 | – | – | CN1CCN(CCCCOC(=O)c2cc(O)c3c(c2)C(=O)c2cccc(O)c2C3=O)CC1.Cl.Cl | – | – | – | – | – | – | – | –
12 | 12.2 | 4.02 | 0.71 | 7.11 | 8.86 | – | – | Cl.Cl.O=C(OCCCN1CCN(CCO)CC1)c1cc(O)c2c(c1)C(=O)c1cccc(O)c1C2=O | – | – | – | – | – | – | – | –
13 | 11.7 | 6.23 | 3.29 | 21.4 | 24.4 | – | – | Cl.O=C(OCCCCN1CCOCC1)c1cc(O)c2c(c1)C(=O)c1cccc(O)c1C2=O | – | – | – | – | – | – | – | –
